{"source": "BindingDB's records for doi:10.1021/acsmedchemlett.5b00147", "about": "(Therachem Research Medilab (India), 2015)", "assay": "Antagonist activity against PAR2 in human HT29 cells assessed as inhibition of UTP-induced Ca2+ responses pre-incubated for 30 mins before UTP stimulation by FLIPR assay", "data": [{"smiles": "CCOC(=O)[C@H]1CCCN(C(=O)c2cn3nc(-c4ccc(F)cc4)cc(C(F)(F)F)c3n2)[C@@H]1C", "values": [{"measurement": "IC50", "value": 4.4, "unit": "µM"}]}]}
